Assay results as given in publication PMC11900313, “Exploring the Potential of Coumarin Derivatives on Serotonin Receptors 5-HT1A and 5HT2A” (International Journal of Molecular Sciences, 2025).
“And” between values parts separate entries of the source, which are not always exact repeats. Equal entries are not always repeated. Where two headings read alike, the source gives them in different places.

Assays:
5-HT2A receptor [1] = biological target: T1, 5-HT2A receptor (Rattus norvegicus, UniProt P14842); experiment: 5-HT2A competitive radioligand binding assay with [3H]ketanserin, frontal cortex membranes; parameters: species or system Sprague–Dawley rats
T1 construct: from tissue; host or cells: Sprague-Dawley rat frontal cortex membranes
Protocol: (§1) Sprague–Dawley rats were decapitated under isoflurane anesthesia. Brains were rapidly removed and placed on ice. Hippocampi (for the 5-HT1A assay) or frontal cortices (for the 5-HT2A assay) were dissected on a Petri dish. The tissue from 10 rats was homogenized in 30 vol. homogenization buffer (50 mM Tris-HCl, pH = 4.7, 1 mM EDTA, 1mM dithiothreitol) with a hand held Teflon-glass homogenizer. The homogenate was centrifuged at 48,000× g at 4 °C for 15 min. The pellet was suspended and homogenized in homogenization buffer and incubated for 10 min at 36 °C. The centrifugation and suspension steps were repeated twice. The final pellet was homogenized in 5 vol. 50 mM Tris-HCl, pH = 7.4 buffer and stored at −80 °C for no longer than 6 months.
(§2) Non-specific binding was determined with 10 μM serotonin. The final DMSO concentration in the assay was 5%. After incubation, the reaction mixture was deposited with the FilterMate-96 Harvester (Revvity, Waltham, MA, USA) onto Unifilter® GF/C plates (Revvity, Waltham, MA, USA) presoaked in 0.4% PEI for 1 h. Each well was washed with 2 mL of 50 mM Tris-HCl (pH 7.4) buffer to separate bound ligands from free. Plates were left to dry overnight. Then, 35 µL of Microscint-20 scintillation fluid (Revvity, Waltham, MA, USA) was added to each filter well and left to equilibrate for 2 h. Filter-bound radioactivity was counted in a MicroBeta^2 LumiJet scintillation counter (Revvity, Waltham, MA, USA). Binding curves were fitted with one site non-linear regression. The binding affinity (Ki) for each compound was calculated from the EC50 values with the Cheng–Prusoff equation from two separate experiments.

5-HT1A receptor [2] = biological target: T2, 5-HT1A receptor (Rattus norvegicus, UniProt P19327); experiment: 5-HT1A competitive radioligand binding assay with [3H]8-OH-DPAT, hippocampal membranes; parameters: species or system Sprague–Dawley rats; conditions: [3H]8-OH-DPAT, hippocampal membranes; 95% CI in brackets
T2 construct: from tissue; host or cells: Sprague-Dawley rat hippocampus membranes
T2 sequence (P19327 1-422): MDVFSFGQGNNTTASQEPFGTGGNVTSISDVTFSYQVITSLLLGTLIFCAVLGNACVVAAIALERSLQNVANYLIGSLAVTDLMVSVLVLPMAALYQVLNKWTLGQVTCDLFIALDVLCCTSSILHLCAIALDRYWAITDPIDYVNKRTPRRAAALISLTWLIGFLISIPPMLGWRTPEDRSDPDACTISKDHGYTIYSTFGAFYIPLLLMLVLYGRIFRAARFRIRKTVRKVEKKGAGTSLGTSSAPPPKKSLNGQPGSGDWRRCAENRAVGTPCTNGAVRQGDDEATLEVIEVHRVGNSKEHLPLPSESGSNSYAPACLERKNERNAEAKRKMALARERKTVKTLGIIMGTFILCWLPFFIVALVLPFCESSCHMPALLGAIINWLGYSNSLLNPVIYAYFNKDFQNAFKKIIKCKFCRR
Protocol: as §1, §2

5-HT1A receptor [3] = biological target: T2, 5-HT1A receptor; experiment: Antagonist activity at 5-HT1A receptors, [35S]GTPγS assay with 8-OH-DPAT stimulation; assay type: biochemical, Sprague–Dawley rats; conditions: for IC50: antagonist activity, [35S]GTPγS
Protocol: as §1
Then, hippocampal membrane homogenates (15 μg/mL) were added to each well, and the mixture was incubated for 90 min. at 37 °C in a total volume of 250 µL. Non-specific binding was determined with 10 µM of unlabeled GTPγS. The reaction was terminated by vacuum filtration onto GF/C Unifilter Plates (Revvity, Waltham, MA, USA) presoaked with 50 mM Tris-HCl (pH = 7.4) for 1 h with the FilterMate Harvester® (Revvity, Waltham, MA, USA). The samples were then rapidly washed with 2 mL of 50 mM Tris-HCl (pH = 7.4) buffer. The Unifilter plates were dried overnight at RT. After drying, 35 µL of EcoScint-20 scintillant (Revvity, Waltham, MA, USA) was added to each well. Radioactivity was counted in a Trilux MicroBeta^2 counter (Revvity, Waltham, MA, USA). […] The curves were fitted with a one-site non-linear regression model to determine inhibitory potency (IC50). The experiments were repeated twice.

5-HT2A receptor [4] = conditions: earlier study; cited from earlier work
5-HT1A receptor [5] = conditions: earlier study; cited from earlier work
5-HT1A receptor [6] = tested on: 5-HT1A receptor; parameters: method as in PMID 36769117; conditions: previous study; cited from earlier work
[7] = read-out: 5-HT2A Ki (nM, 95% CI)
[8] = 1 µM 8-OH-DPAT, 95% CI in brackets, read-out: 5-HT1A IC50 (µM, 95% CI)

T1 sequence (P14842 whole entry): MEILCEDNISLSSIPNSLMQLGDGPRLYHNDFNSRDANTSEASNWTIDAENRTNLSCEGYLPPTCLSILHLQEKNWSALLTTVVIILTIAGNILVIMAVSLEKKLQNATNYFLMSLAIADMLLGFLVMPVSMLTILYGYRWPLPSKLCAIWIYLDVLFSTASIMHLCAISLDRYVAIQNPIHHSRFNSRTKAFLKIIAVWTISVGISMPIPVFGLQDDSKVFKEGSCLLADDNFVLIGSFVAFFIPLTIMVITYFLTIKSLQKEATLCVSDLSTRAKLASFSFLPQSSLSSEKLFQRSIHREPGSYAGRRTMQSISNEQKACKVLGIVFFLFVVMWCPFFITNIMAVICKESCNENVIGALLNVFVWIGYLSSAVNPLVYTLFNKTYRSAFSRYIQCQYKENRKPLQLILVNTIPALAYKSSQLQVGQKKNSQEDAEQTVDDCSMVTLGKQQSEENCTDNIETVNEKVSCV

## COc1ccccc1N1CCN(CC(O)COc2c(C(C)=O)c(C)cc3oc(=O)cc(C)c23)CC1 (centres unmarked) [Compound 7, 6-Acetyl-5-(2-hydroxy-3-(4-(2-methoxyphenyl)piperazin-1-yl)propoxy)-4,7-dimethyl-2H-chromen-2-one]
5-HT2A receptor [1]; [7]
  Ki: 4150 nM
5-HT1A receptor [2]
  Ki: 90 nM
5-HT1A receptor [3]; [8]
  IC50: 2.4 µM

## COc1cccc(N2CCN(CC(O)COc3c(C(C)=O)c(C)cc4oc(=O)cc(C)c34)CC2)c1 (centres unmarked) [Compound 8, 6-Acetyl-5-(2-hydroxy-3-(4-(3-methoxyphenyl)piperazin-1-yl)propoxy)-4,7-dimethyl-2H-chromen-2-one]
5-HT2A receptor [1]; [7]
  Ki: 115 nM
5-HT1A receptor [2]
  Ki: 1780 nM
5-HT1A receptor [3]; [8]
  IC50: 16.2 µM

## COc1ccccc1N1CCN(CC(O)COc2ccc3c(C)cc(=O)oc3c2C(C)=O)CC1 (centres unmarked) [Compound 11, 8-Acetyl-7-(2-hydroxy-3-(4-(2-methoxyphenyl)piperazin-1-yl)propoxy)-4-methyl-2H-chromen-2-one]
5-HT2A receptor [1]; [7]
  Ki: 6160 nM
5-HT1A receptor [3]; given in nM in text, read-out: 5-HT1A IC50
  IC50: 0.043 µM
5-HT1A receptor [3]; functional assays
  5-HT1A functional profile: significant 5-HT1A antagonistic profile

## COc1ccccc1N1CCN(CC(O)COc2cc3oc(=O)cc(C)c3cc2C(C)=O)CC1 (centres unmarked) [Compound 1, 6-Acetyl-7-(2-hydroxy-3-(4-(2-methoxyphenyl)piperazin-1-yl)propoxy)-4-methyl-2H-chromen-2-one]
5-HT2A receptor [1]; [7]
  Ki: 1850 nM
5-HT1A receptor [2]
  Ki: 243 nM
5-HT1A receptor [3]; [8]
  IC50: 331 µM

## COc1cccc(N2CCN(CC(O)COc3cc(=O)oc4ccccc34)CC2)c1 (centres unmarked) [Compound 4, 4-(2-Hydroxy-3-(4-(3-methoxyphenyl)piperazin-1-yl)propoxy)-2H-chromen-2-one]
5-HT2A receptor [1]; [7]
  Ki: 315 nM
5-HT1A receptor [2]
  Ki: 190 nM
5-HT1A receptor [3]; [8]
  IC50: 10 µM

## COc1ccccc1N1CCN(CC(O)COc2ccc3c(C)cc(=O)oc3c2)CC1 (centres unmarked) [Compound 9, 7-(2-Hydroxy-3-(4-(2-methoxyphenyl)piperazin-1-yl)propoxy)-4-methyl-2H-chromen-2-one]
5-HT2A receptor [1]; [7]
  Ki: 291 nM
5-HT1A receptor [2]
  Ki: 245 nM
5-HT1A receptor [3]; [8]
  IC50: 2.42 µM and 2.4 µM

## COc1ccccc1N1CCN(CCCOc2ccc3c(C)cc(=O)oc3c2C(C)=O)CC1 [8-acetyl-7-{3-[4-(2-methoxyphenyl)piperazin-1-yl]propoxy}-4-methylcoumarin]
5-HT2A receptor [4]
  Ki: 8 nM
5-HT1A receptor [5]
  Ki: 0.6 nM

## COc1cccc(N2CCN(CC(O)COc3cc4oc(=O)cc(C)c4cc3C(C)=O)CC2)c1 (centres unmarked) [Compound 2, 6-Acetyl-7-(2-hydroxy-3-(4-(3-methoxyphenyl)piperazin-1-yl)propoxy)-4-methyl-2H-chromen-2-one]
5-HT2A receptor [1]; [3H]ketanserin, frontal cortex membranes, 95% CI in brackets
  Ki: 83 nM
5-HT1A receptor [2]
  Ki: 196 nM
5-HT1A receptor [3]; [8]
  IC50: 58.5 µM and 59 µM

## COc1ccccc1N1CCN(CC(O)COc2cc(=O)oc3ccccc23)CC1 (centres unmarked) [Compound 3, 4-(2-Hydroxy-3-(4-(2-methoxyphenyl)piperazin-1-yl)propoxy)-2H-chromen-2-one]
5-HT2A receptor [1]; [7]
  Ki: 4010 nM
5-HT1A receptor [2]
  Ki: 243 nM
5-HT1A receptor [3]; [8]
  IC50: 67.8 µM and 68 µM

## COc1cccc(N2CCN(CC(O)COc3ccc4ccc(=O)oc4c3)CC2)c1 (centres unmarked) [Compound 14, 7-(2-Hydroxy-3-(4-(3-methoxyphenyl)piperazin-1-yl)propoxy)-2H-chromen-2-one]
5-HT2A receptor [1]; [7]
  Ki: 68 nM
5-HT1A receptor [2]
  Ki: 135 nM
5-HT1A receptor [3]; [8]
  IC50: 112 µM

## COc1cccc(N2CCN(CC(O)COc3ccc4c(C)cc(=O)oc4c3)CC2)c1 (centres unmarked) [Compound 10, 7-(2-Hydroxy-3-(4-(3-methoxyphenyl)piperazin-1-yl)propoxy)-4-methyl-2H-chromen-2-one]
5-HT2A receptor [1]; [7]
  Ki: 260 nM
5-HT1A receptor [2]
  Ki: 87 nM
5-HT1A receptor [3]; [8]
  IC50: 89.5 µM

## COc1ccccc1N1CCN(CC(O)COc2cc(C)cc3oc(=O)cc(C)c23)CC1 (centres unmarked) [Compound 5, 5-(2-Hydroxy-3-(4-(2-methoxyphenyl)piperazin-1-yl)propoxy)-4,7-dimethyl-2H-chromen-2-one]
5-HT2A receptor [1]; [7]
  Ki: 1180 nM
5-HT1A receptor [2]
  Ki: 90 nM
5-HT1A receptor [3]; [8]
  IC50: 14.7 µM

## COc1cccc(N2CCN(CC(O)COc3cc(C)cc4oc(=O)cc(C)c34)CC2)c1 (centres unmarked) [Compound 6, 5-(2-Hydroxy-3-(4-(3-methoxyphenyl)piperazin-1-yl)propoxy)-4,7-dimethyl-2H-chromen-2-one]
5-HT2A receptor [1]; [7]
  Ki: 662 nM
5-HT1A receptor [2]
  Ki: 176 nM
5-HT1A receptor [3]; [8]
  IC50: 6.5 µM

## COc1ccccc1N1CCN(CC(O)COc2ccc3ccc(=O)oc3c2)CC1 (centres unmarked) [Compound 13, 7-(2-Hydroxy-3-(4-(2-methoxyphenyl)piperazin-1-yl)propoxy)-2H-chromen-2-one]
5-HT2A receptor [1]; [7]
  Ki: 18 nM
5-HT1A receptor [2]
  Ki: 222 nM
5-HT1A receptor [3]; [8]
  IC50: 1.43 µM

## COc1cccc(N2CCN(CC(O)COc3ccc4c(C)cc(=O)oc4c3C(C)=O)CC2)c1 (centres unmarked) [Compound 12, 8-Acetyl-7-(2-hydroxy-3-(4-(3-methoxyphenyl)piperazin-1-yl)propoxy)-4-methyl-2H-chromen-2-one]
5-HT2A receptor [1]; [7]
  Ki: 67 nM
5-HT1A receptor [2]
  Ki: 264 nM

## COc1cccc(N2CCN(CCCCOc3cc4oc(=O)cc(C)c4cc3C(C)=O)CC2)c1 [6-acetyl-7-{4-[4-(3-methoxyphenyl)piperazin-1-yl]butoxy}-4-methylcoumarin]
5-HT1A receptor [6]
  5-HT1A receptor activity (agonist/antagonist): agonist
